Experimental data reported in patent US20030044856A1, “Method of determining volume dependent hypertension through protein reduction in phosphorylation or concentration and related apparatus” (priority 1997, published 2003).

Key:
[1] = test system: Mr = 72,000 brush border membrane protein; details: 10 μM cyclic AMP
Text: The preparation of the rat renal proximal brush border membrane vesicles was accomplished in the following manner: When the systolic blood pressure in the DOCA and the 2K1C rat groups became elevated compared with each of the control groups (usually in 3-4 weeks), the kidney cortex was removed to prepare the proximal brush border membrane vesicles by a calcium precipitation method as described in Kempson et al., Inhibition of Renal Brush Border Phosphate Transport and Stimulation of Renal Gluconeogenesis by Cyclic AMP and Parathyroid Hormone, Biochem., Pharmacol., 32:pp. 1533-37 (1983). Vesicles were utilized only if there was at least an 8-fold enrichment in gamma-glutamyl transpeptidase activity in the proximal brush border membrane fraction compared to the original cortical homogenate. […]
The test results reported herein were determined by SDS polyacrylamide gel electrophoresis, autoradiography and densitometry. […] Protein concentration was determined by the method of Bradford using bovine serum albumin as a standard.
Autoradiography and densitometry were performed in accordance with Laminski, et al., Phosphorylation of Endogenous Protein in Primate Kidney. […] Scan traces were recorded with an Ultroscan XL laser densitometer (Pharmacia, LKB) and analyzed by using the computer GelScan XL Software (Version 2.1, Pharmacia).

[2] = test system: Mr = 72,000 brush border membrane protein; assay: Phosphorylation of 72,000 Mr renal brush border membrane protein from treated rats (SDS-PAGE, autoradiography, densitometry); type: in vivo, rat; details: for relative area units under the peak in the densitometry tracings of autoradiogram of the Mr = 72,000 brush border membrane protein: mean ± SEM
Experimental: Male Sprague-Dawley rats, weighing 125-150 g (Charles River, Wilmington, Mass.), were randomly divided into three groups: (1) DOCA-salt group-rats underwent unilateral nephrectomy and were given an initial injection of 12.5 mg of deoxycorticosterone acetate (DOCA) followed by 6.5 mg weekly which was coupled with 1 percent saline as drinking water ([…] et al. Altered Activity of the Sodium-Potassium Pump in Arteries of Rats with Steroid Hypertension, Clin. Sci. Mol. Med., 55:pp. 41s-43s (1978); (2) Uninephrectomized control group (UNE)-rats underwent unilateral nephrectomy and were given tap water ad libitum; (3) Normal group-normal rats drank tap water ad libitum and were not subjected to surgery. All three groups were maintained on normal rat chow. Systolic blood pressure was measured weekly by the tail-cuff method. […] J. Biol. Chem. 257:pp 992-99 (1982). […] Anal Biochem, 72:pp. 248-54 (1976). Autoradiography and densitometry were performed in accordance with […], et al., Phosphorylation of Endogenous Protein in Primate Kidney. […] Biochem. Physiol. 103B:pp 267-73 (1992). […] Data is expressed as mean±SEM, with statistical significance being calculated by Student's t test and the ANOVA test.

[3] = Systolic blood pressure by tail-cuff method in DOCA-salt hypertensive rats; type: in vivo, rat; details: mean±SEM
Experimental: Male Sprague-Dawley rats, weighing 125-150 g (Charles River, Wilmington, Mass.), were randomly divided into three groups: (1) DOCA-salt group-rats underwent unilateral nephrectomy and were given an initial injection of 12.5 mg of deoxycorticosterone acetate (DOCA) followed by 6.5 mg weekly which was coupled with 1 percent saline as drinking water (Pamani et al. Altered Activity of the Sodium-Potassium Pump in Arteries of Rats with Steroid Hypertension, Clin. Sci. Mol. Med., 55:pp. 41s-43s (1978); (2) Uninephrectomized control group (UNE)-rats underwent unilateral nephrectomy and were given tap water ad libitum; (3) Normal group-normal rats drank tap water ad libitum and were not subjected to surgery. All three groups were maintained on normal rat chow. Systolic blood pressure was measured weekly by the tail-cuff method.
Referring to FIG. 1, there is shown a plot of systolic blood pressure in mm Hg versus time in days. The study involved ten rats in each of the three DOCA categories: (a) DOCA-salt; (b) UNE-uninephrectomized; and (c) NOR, normal group. The 2K1C study involved eight rats in each of the three groups: (a) 2K1C; (b) SHAM, sham-operated group; and (c) NOR, normal group.
The systolic blood pressure in the 2K1C rats increased from 121.4±1.7 mm Hg to 137.6±3.0 mm Hg by the first week after surgery and to 173.5±4.4 mm Hg by the 21st day (p<0.001). […]

For `Nc1ncnc2c1ncn2[C@@H]1O[C@@H]2COP(=O)(O)O[C@H]2[C@H]1O` [cyclic AMP], the “influence of cAMP on phosphorylation of the Mr=72,000 protein” value ([1]; membranes from 2K1C, Sham and Normal rats) was “not influenced” and the “effect of addition of cyclic AMP on phosphorylation of the Mr=72,000 protein” value ([1]; membranes from DOCA, UNE and Normal rats) was “did not affect”.

In the case of `CC(=O)OCC(=O)[C@H]1CC[C@H]2[C@@H]3CCC4=CC(=O)CC[C@]4(C)[C@H]3CC[C@]12C` [DOCA, deoxycorticosterone acetate], the “relative area units under the peak in the densitometry tracings of autoradiogram of the Mr = 72,000 brush border membrane protein” value ([2]; +cAMP (10 μM cyclic AMP in incubation mixture)) is reported as 1.218 ± 0.33 relative area units, the “phosphorylation of the Mr=72,000 protein compared with UNE and normal rats” value ([2]; DOCA group rats, p<0.01) is reported as “significant attenuation” and the “relative area units under the peak in the densitometry tracings of autoradiogram of the Mr = 72,000 brush border membrane protein” value ([2]; −cAMP (no cyclic AMP in incubation mixture)) is reported as 1.389 ± 0.37 relative area units. The systolic blood pressure ([3]; 7th day of treatment) was 128.9±2.1 mm Hg and the systolic blood pressure ([3]; 21st day, p<0.001) was 188.2±5.3 mm Hg.
